Active and inactive are the calls of the source. The rule behind the calls is not given here.
Legend:
[1] = Induction of morphological changes in human MRC9 cells assessed as microtubule damage at 1 to 10 uM incubated for 18 hrs by confocal fluorescence microscopic analysis; type: toxicity, cell-based; details: mrc9, 18 h, dose 1-10 µM
[2] = system: HEK-293T; assay: Cytotoxicity against human HEK293T cells assessed as increase in total apoptotic cells at 10 uM incubated for 36 hrs by Annexin V staining based method; type: toxicity, cell-based
[3] = Cytotoxicity against human HEK293T cells assessed as increase in total apoptotic cells incubated for 36 hrs by Annexin V staining based method; type: toxicity, cell-based, HEK-293T
[4] = target: T1, Serine/threonine-protein kinase 17A (Homo sapiens) (UniProt Q9UEE5); assay: Inhibition of human N-terminal His-tagged/ TEV cleavage fused DRAK1 (39 to 369 residues) expressed in Escherichia coli assessed as change in entropy by isothermal titration calorimetry
T1 sequence (whole entry): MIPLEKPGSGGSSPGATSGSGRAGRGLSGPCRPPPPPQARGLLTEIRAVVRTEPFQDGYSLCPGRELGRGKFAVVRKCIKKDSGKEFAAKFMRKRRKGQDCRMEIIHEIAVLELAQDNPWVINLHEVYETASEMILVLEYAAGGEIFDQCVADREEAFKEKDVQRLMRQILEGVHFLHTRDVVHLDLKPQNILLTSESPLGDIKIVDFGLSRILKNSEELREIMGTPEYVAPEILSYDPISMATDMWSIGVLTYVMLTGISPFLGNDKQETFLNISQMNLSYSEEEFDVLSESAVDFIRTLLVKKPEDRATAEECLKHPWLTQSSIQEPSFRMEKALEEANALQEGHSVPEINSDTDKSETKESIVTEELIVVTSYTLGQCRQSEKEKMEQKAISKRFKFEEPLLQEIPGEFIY

[5] = Induction of morphological changes in human MRC9 cells assessed as mitochondrial damage at 1 to 10 uM incubated for 18 hrs by confocal fluorescence microscopic analysis; type: toxicity, cell-based; details: mrc9, 18 h, dose 1-10 µM
[6] = system: HEK-293T; assay: Cytotoxicity against human HEK293T cells at 1 uM incubated for 18 hrs; type: toxicity, cell-based
[7] = system: HEK-293T; assay: Cytotoxicity against human HEK293T cells assessed as increase in total apoptotic cells at 10 uM incubated for 18 hrs by Annexin V staining based method; type: toxicity, cell-based
[8] = system: T98G; assay: Induction of morphological changes in human T98G cells assessed as change in cell shape at 12.5 uM incubated for 5 days by microscopy analysis; type: functional, cell-based; details: time 5.0 day
[9] = system: HEK-293T; assay: Cytotoxicity against human HEK293T cells at 1 uM incubated for 36 hrs; type: toxicity, cell-based
[10] = system: LN-229; assay: Antiproliferative activity against human LN-229 cells assessed as reduction in cell viability after 1 to 7 days by resazurin dye based fluorimetric analysis; type: functional
[11] = system: U2OS; assay: Cytotoxicity against human U2OS cells assessed as increase in total apoptotic cells at 10 uM incubated for 36 hrs by Annexin V staining based method; type: functional, cell-based
[12] = target: T2, Casein kinase II subunit alpha (Homo sapiens, UniProt P68400); assay: Binding affinity to wild type full length human CK2alpha1 (1 to 391 residues) expressed in mammalian expression system assessed as change in melting temperature at 10 uM by SYPRO orange dye based DSF assay
Target sequence in this assay (P68400 whole entry, looked up, the tested form may be a part): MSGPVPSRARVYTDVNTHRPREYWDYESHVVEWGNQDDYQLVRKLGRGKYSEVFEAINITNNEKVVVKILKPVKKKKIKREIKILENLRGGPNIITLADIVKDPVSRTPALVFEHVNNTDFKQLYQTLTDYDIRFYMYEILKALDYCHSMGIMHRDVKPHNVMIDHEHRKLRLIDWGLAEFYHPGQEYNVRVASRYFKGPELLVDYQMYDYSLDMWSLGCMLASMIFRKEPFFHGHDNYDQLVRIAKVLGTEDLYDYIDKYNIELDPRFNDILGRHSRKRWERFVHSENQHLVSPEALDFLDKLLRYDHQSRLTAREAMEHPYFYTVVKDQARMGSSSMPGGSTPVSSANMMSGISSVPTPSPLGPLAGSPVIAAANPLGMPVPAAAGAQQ

[13] = system: T98G; assay: Antiproliferative activity against human T98G cells assessed as reduction in cell viability measured after 1 to 7 days by resazurin dye based fluorimetric analysis; type: functional
[14] = Cytotoxicity against human MRC9 cells assessed as increase in total apoptotic cells incubated for 36 hrs by Annexin V staining based method; type: toxicity, cell-based
[15] = Cytotoxicity against human MRC9 cells assessed as increase in total apoptotic cells at 10 uM incubated for 36 hrs by Annexin V staining based method; type: toxicity, cell-based; details: mrc9, 36 h
[16] = target: T1, Serine/threonine-protein kinase 17A (Homo sapiens); assay: Binding affinity to human N-terminal His-tagged/ TEV cleavage fused DRAK1 (39 to 369 residues) expressed in Escherichia coli assessed as change in melting temperature at 10 uM by SYPRO orange dye based DSF assay
[17] = system: LN-18; assay: Antiproliferative activity against human LN-18 cells assessed as reduction in cell viability after 1 to 7 days by resazurin dye based fluorimetric analysis; type: functional
[18] = system: HEK-293T; assay: Induction of morphological changes in human HEK293T cells assessed as mitochondrial damage at 1 to 10 uM incubated for 18 hrs by confocal fluorescence microscopic analysis; type: toxicity, cell-based; details: dose 1-10 µM
[19] = target: T3, Serine/threonine-protein kinase 17A (Homo sapiens, UniProt Q9UEE5); assay: Binding affinity to human N-terminal His-tagged/ TEV cleavage fused DRAK1 (39 to 369 residues) expressed in Escherichia coli by isothermal titration calorimetry
T3 sequence (Q9UEE5 whole entry): T1 sequence (whole entry)

[20] = target: T1, Serine/threonine-protein kinase 17A (Homo sapiens); assay: Inhibition of human N-terminal His-tagged/ TEV cleavage fused DRAK1 (39 to 369 residues) expressed in Escherichia coli assessed as gibbs free energy change by isothermal titration calorimetry
[21] = target: T3, Serine/threonine-protein kinase 17A; assay: Inhibition of human N-terminal His-tagged/ TEV cleavage fused DRAK1 (39 to 369 residues) transfected in HEK293T cells using NanoBRET NanoGlo as substrate incubated for 2 hrs by NanoBRET assay; type: cell-based
[22] = target: T3, Serine/threonine-protein kinase 17A; assay: Inhibition of human N-terminal His-tagged/ TEV cleavage fused DRAK1 (39 to 369 residues) expressed in Escherichia coli using KKLNRTLSFAEPG peptide as substrate in presence of [gamma-33P]ATP by radiometric based scintillation proximity assay
[23] = system: U2OS; assay: Cytotoxicity against human U2OS cells assessed as increase in total apoptotic cells incubated for 36 hrs by Annexin V staining based method; type: functional, cell-based
[24] = target: T1, Serine/threonine-protein kinase 17A (Homo sapiens); assay: Inhibition of human N-terminal His-tagged/ TEV cleavage fused DRAK1 (39 to 369 residues) expressed in Escherichia coli assessed as change in enthalpy by isothermal titration calorimetry
[25] = Cytotoxicity against human MRC9 cells at 1 uM incubated for 36 hrs; type: toxicity, cell-based; details: mrc9, 36 h
[26] = system: HEK-293T; assay: Induction of morphological changes in human HEK293T cells assessed as microtubule damage at 1 to 10 uM incubated for 18 hrs by confocal fluorescence microscopic analysis; type: toxicity, cell-based; details: dose 1-10 µM
[27] = system: D-247MG; assay: Antiproliferative activity against human D-247MG cells assessed as reduction in cell viability after 1 to 7 days by resazurin dye based fluorimetric analysis; type: functional
[28] = Binding affinity to wild type full length human CK2alpha2 (1 to 350 residues) expressed in mammalian expression system assessed as change in melting temperature by SYPRO orange dye based DSF assay
[29] = target: T2, Casein kinase II subunit alpha; assay: Inhibition of CK2alpha1(unknown origin) transfected in HEK293T cells using NanoBRET NanoGlo as substrate incubated for 2 hrs by NanoBRET assay; type: cell-based
Target sequence in this assay (P68400 whole entry, the tested form may be a part): as the sequence (P68400 whole entry, looked up, the tested form may be a part) above

[30] = target: T4, BMP-2-inducible protein kinase (Homo sapiens, UniProt Q9NSY1); assay: Inhibition of BIKE (unknown origin) transfected in HEK293T cells using NanoBRET NanoGlo as substrate incubated for 2 hrs by NanoBRET assay; type: cell-based
Target sequence in this assay (Q9NSY1 whole entry): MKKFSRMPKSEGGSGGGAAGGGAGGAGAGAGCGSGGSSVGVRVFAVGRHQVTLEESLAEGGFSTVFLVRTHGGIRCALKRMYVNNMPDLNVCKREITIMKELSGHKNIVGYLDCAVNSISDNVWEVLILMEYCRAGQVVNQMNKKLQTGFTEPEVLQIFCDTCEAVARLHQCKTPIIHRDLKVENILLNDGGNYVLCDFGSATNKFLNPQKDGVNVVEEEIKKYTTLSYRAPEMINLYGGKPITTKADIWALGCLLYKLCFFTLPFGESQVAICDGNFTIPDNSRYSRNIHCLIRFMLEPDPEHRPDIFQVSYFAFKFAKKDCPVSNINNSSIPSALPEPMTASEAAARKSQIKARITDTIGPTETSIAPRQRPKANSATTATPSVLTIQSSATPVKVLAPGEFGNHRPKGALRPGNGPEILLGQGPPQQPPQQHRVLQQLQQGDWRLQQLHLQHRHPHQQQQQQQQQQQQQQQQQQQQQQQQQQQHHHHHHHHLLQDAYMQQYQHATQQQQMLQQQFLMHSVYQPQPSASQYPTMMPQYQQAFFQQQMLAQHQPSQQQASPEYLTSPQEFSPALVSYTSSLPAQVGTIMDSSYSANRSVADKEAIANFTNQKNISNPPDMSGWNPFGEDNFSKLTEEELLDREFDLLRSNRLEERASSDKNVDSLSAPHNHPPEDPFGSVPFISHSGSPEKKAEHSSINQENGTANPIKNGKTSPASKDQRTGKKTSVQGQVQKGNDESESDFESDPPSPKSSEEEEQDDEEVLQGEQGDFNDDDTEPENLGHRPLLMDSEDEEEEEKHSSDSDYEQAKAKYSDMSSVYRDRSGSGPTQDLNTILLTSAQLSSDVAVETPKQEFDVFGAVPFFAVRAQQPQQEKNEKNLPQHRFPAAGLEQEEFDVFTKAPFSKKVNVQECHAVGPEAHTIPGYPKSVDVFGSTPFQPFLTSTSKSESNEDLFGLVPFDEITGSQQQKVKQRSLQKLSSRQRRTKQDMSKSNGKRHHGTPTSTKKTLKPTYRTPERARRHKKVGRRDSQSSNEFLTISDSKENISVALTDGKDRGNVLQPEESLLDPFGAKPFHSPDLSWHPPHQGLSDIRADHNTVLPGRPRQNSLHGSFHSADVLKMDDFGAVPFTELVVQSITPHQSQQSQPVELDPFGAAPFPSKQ

[31] = target: T5, Serine/threonine-protein kinase 17B (Homo sapiens, UniProt O94768); assay: Inhibition of DRAK2 (unknown origin) transfected in HEK293T cells using NanoBRET NanoGlo as substrate incubated for 2 hrs by NanoBRET assay; type: cell-based
T5 sequence (O94768 whole entry): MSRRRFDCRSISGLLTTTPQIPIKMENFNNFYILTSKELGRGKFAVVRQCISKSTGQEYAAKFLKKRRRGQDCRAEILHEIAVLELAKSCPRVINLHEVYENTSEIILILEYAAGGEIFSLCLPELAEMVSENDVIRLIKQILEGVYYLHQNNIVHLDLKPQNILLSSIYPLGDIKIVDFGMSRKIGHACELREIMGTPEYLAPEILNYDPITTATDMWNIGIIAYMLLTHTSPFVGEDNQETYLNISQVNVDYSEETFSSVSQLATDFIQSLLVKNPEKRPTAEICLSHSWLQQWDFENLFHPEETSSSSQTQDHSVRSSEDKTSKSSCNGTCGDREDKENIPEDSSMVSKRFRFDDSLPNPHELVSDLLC

[32] = Inhibition of CK2alpha2 (unknown origin) transfected in HEK293T cells using NanoBRET NanoGlo as substrate incubated for 2 hrs by NanoBRET assay; type: cell-based; details: Homo sapiens, HEK-293T
[33] = target: T4, BMP-2-inducible protein kinase; assay: Binding affinity to BIKE (unknown origin) assessed as change in melting temperature at 10 uM by SYPRO orange dye based DSF assay
Target sequence in this assay (Q9NSY1 whole entry, looked up): as the sequence (Q9NSY1 whole entry) above

[34] = target: AP2-associated protein kinase 1 (Homo sapiens) (UniProt Q2M2I8); assay: Binding affinity to AAK1 (unknown origin) assessed as change in melting temperature at 10 uM by SYPRO orange dye based DSF assay
[35] = target: T2, Casein kinase II subunit alpha; assay: Inhibition of human CK2alpha1 using RRRDDDSDDD peptide as substrate in presence of [gamma-33P]ATP by radiometric based scintillation proximity assay
Target sequence in this assay (P68400 whole entry, the tested form may be a part): as the sequence (P68400 whole entry, looked up, the tested form may be a part) above

[36] = Inhibition of human CK2alpha2 using RRRDDDSDDD peptide as substrate in presence of [gamma-33P]ATP by radiometric based scintillation proximity assay
[37] = target: T6, Cyclin-G-associated kinase (Homo sapiens, UniProt O14976); assay: Inhibition of GAK (unknown origin) transfected in HEK293T cells using NanoBRET NanoGlo as substrate incubated for 2 hrs by NanoBRET assay; type: cell-based
T6 sequence (O14976 whole entry): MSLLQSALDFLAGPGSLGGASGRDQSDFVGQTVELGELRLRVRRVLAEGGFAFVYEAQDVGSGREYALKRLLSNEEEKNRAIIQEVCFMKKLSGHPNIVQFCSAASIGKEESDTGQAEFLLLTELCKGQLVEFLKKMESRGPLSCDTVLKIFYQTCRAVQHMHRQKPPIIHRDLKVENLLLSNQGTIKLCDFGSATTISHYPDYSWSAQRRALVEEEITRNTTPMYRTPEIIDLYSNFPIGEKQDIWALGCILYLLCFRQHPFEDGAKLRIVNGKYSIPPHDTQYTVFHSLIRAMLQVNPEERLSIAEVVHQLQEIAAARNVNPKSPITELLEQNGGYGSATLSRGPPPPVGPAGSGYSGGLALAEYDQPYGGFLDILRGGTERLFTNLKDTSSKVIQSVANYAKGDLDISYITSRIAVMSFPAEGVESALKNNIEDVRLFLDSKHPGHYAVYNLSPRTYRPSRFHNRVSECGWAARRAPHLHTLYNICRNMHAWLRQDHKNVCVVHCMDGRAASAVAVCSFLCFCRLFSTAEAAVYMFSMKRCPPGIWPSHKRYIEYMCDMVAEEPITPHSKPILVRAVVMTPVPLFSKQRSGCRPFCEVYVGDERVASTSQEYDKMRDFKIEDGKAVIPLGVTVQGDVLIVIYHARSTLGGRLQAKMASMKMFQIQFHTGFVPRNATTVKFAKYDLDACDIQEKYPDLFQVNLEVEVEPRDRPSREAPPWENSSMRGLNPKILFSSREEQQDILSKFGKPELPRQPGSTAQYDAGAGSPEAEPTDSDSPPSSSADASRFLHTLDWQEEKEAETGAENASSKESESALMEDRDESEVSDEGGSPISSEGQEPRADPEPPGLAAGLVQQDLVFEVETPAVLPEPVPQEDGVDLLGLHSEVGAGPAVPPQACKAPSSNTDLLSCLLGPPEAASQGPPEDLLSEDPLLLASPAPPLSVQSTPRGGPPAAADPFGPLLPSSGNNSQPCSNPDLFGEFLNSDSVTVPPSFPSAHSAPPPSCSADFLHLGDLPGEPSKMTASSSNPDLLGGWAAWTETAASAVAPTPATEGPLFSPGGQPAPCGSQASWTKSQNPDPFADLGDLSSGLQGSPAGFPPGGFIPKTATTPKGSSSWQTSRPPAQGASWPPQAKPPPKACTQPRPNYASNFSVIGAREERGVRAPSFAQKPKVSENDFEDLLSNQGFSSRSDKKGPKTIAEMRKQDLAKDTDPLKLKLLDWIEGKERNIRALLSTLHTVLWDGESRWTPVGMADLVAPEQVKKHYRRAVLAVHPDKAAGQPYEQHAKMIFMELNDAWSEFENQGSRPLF

Sequence of AP2-associated protein kinase 1 (Homo sapiens) (Q2M2I8 whole entry, looked up): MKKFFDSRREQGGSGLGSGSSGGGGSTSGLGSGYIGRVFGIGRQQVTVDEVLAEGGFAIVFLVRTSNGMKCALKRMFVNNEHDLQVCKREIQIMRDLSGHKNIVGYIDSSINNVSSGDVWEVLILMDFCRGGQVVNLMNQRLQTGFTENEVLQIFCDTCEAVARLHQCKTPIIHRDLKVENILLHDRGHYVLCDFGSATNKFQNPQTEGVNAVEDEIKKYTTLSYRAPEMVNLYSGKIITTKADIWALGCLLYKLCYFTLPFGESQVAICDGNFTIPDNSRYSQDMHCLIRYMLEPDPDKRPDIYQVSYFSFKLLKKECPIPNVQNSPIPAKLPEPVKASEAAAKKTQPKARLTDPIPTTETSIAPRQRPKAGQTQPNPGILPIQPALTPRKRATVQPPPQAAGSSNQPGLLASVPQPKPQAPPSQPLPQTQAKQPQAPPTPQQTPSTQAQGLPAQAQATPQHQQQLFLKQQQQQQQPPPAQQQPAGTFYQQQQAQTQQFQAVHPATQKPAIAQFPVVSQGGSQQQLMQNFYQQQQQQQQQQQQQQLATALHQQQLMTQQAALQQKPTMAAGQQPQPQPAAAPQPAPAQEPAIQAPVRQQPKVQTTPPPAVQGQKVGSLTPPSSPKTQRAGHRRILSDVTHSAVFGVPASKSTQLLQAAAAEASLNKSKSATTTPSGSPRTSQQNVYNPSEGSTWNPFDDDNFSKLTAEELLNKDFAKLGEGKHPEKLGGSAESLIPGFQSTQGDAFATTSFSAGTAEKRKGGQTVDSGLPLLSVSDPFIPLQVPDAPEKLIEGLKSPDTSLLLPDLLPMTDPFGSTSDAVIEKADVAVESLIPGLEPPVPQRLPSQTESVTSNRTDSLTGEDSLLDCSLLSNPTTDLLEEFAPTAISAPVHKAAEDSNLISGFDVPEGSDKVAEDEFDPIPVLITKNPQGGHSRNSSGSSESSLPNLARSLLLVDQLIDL

deltaS [4] [cal/mol.K]	ΔTm [12] [°C]	ΔTm [16] [°C]	IC50 [21] [nM]	IC50 [22] [nM]	ΔTm [28] [°C]	SMILES	Activity [1]	Activity [2]	EC50 at 36 h [3] [nM]	Activity [5]	Activity [6]	Activity [7]	Activity [8]	Activity [9]	EC50 [10] [nM]	Activity [11]	EC50 [13] [nM]	EC50 at 36 h [14] [nM]	Activity [15]	EC50 [17] [nM]	also measured
11.6	1.2	12.3	70	15	0.1	C[C@H](NC(=O)c1ccc2cc1OCCOCCNc1ccn3ncc-2c3n1)c1ccncc1	Non-Toxic	Toxic	> 10000	Non-Toxic	Non-Toxic	Toxic	Active	Non-Toxic	2200	Active	2340	> 10000	Toxic	1970	Activity [18]: Non-Toxic; Kd [19]: 9 nM; deltaG [20]: -10.1 kcal/mol; EC50 [23]: > 10000 nM; deltaH [24]: -6.78 kcal/mol; Activity [25]: Non-Toxic; Activity [26]: Non-Toxic; EC50 [27]: 1250 nM
–	-0.9	12.1	71	31	1.9	CC(NC(=O)c1ccc2cc1OCCOCCNc1ccn3ncc-2c3n1)c1ccccc1 (centres undefined)	–	–	–	–	–	–	–	–	–	–	–	–	–	–	–
11.1	0.8	11.3	182	49	2.3	CC(C)(C)NC(=O)c1ccc2cc1OCCOCCNc1ccn3ncc-2c3n1	Non-Toxic	Toxic	> 10000	Non-Toxic	Non-Toxic	Toxic	Active	Non-Toxic	9200	Active	10400	> 10000	Toxic	11200	IC50 [29]: 34000 nM; IC50 [30]: 8000 nM; Activity [18]: Non-Toxic; IC50 [31]: 8400 nM; IC50 [32]: 39000 nM; ΔTm [33]: > 5 °C; Kd [19]: 21 nM; ΔTm [34]: > 5 °C; deltaG [20]: -10.6 kcal/mol; IC50 [35]: 950 nM; deltaH [24]: -7.39 kcal/mol; Activity [25]: Non-Toxic; Activity [26]: Non-Toxic; EC50 [27]: 2750 nM; IC50 [36]: 380 nM; IC50 [37]: 24000 nM

— ChEMBL document CHEMBL5154923 (J Med Chem, 2022)
